Legend:
Format in all cases: in vivo
[1] = system: ryegrass, Italian (Italian ryegrass, Lolium multiflorum); experiment: Test A preemergence; conditions: Lolium multiflorum, pre-emergence, 240 h, preemergence, 0 to 100 scale where 0 is no effect and 100 is complete control, read-out: Ryegrass, Italian plant response rating; for pest or weed control at 125 g/ha: 125 g ai/ha, visual injury rating, approximately 10 d; for pest or weed control at 500 g/ha: 500 g ai/ha
Outline: (§1)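 Compounds were formulated in a non-phytotoxic solvent mixture with surfactant and applied as a preemergence directed soil spray after seeding, or sprayed postemergence over plants 2 to 10 cm tall at the one- to two-leaf stage. Evaluation after about 10 d compared treated with untreated controls, using a scale from 0 (no effect) to 100 (complete control).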

[2] = system: Galium (catchweed bedstraw, Galium aparine); experiment: Test A postemergence; conditions: Galium, post-emergence, 240 h, postemergence; for pest or weed control at 125 g/ha: 125 g ai/ha, visual injury vs untreated controls after approx. 10 d, 0 = no effect, 100 = complete control, read-out: Galium plant response rating (0 to 100 scale); for pest or weed control at 500 g/ha: 500 g ai/ha, 0 to 100 scale, 0 is no effect, 100 is complete control, read-out: Galium plant response rating
Outline: as §1

Kochia (Kochia scoparia) = experiment: Test A postemergence; conditions: Bassia scoparia, post-emergence, 240 h, postemergence; for pest or weed control at 125 g/ha: 125 g ai/ha, visual injury vs untreated controls after approx. 10 d, 0 = no effect, 100 = complete control, read-out: Kochia plant response rating (0 to 100 scale); for pest or weed control at 500 g/ha: 500 g ai/ha, 0 to 100 scale, 0 is no effect, 100 is complete control, read-out: Kochia plant response rating
Outline: as §1

[3] = system: barnyardgrass (Echinochloa crus-galli); experiment: Test A postemergence; conditions: Echinochloa crus-galli, post-emergence, 240 h, postemergence; for pest or weed control at 125 g/ha: 125 g ai/ha, visual injury vs untreated controls after approx. 10 d, 0 = no effect, 100 = complete control, read-out: Barnyardgrass plant response rating (0 to 100 scale); for pest or weed control at 500 g/ha: 500 g ai/ha, 0 to 100 scale, 0 is no effect, 100 is complete control, read-out: Barnyardgrass plant response rating
Outline: as §1

[4] = system: blackgrass (Alopecurus myosuroides); experiment: Test A postemergence; conditions: Alopecurus myosuroides, post-emergence, 240 h, postemergence; for pest or weed control at 125 g/ha: 125 g ai/ha, visual injury vs untreated controls after approx. 10 d, 0 = no effect, 100 = complete control, read-out: Blackgrass plant response rating (0 to 100 scale); for pest or weed control at 500 g/ha: 500 g ai/ha, 0 to 100 scale, 0 is no effect, 100 is complete control, read-out: Blackgrass plant response rating
Outline: as §1

corn (Zea mays) = experiment: Test A postemergence; conditions: Zea mays, post-emergence, 240 h, postemergence; for plant injury at 125 g/ha: 125 g ai/ha, visual injury vs untreated controls after approx. 10 d, 0 = no effect, 100 = complete control, read-out: Corn plant response rating (0 to 100 scale); for plant injury at 500 g/ha: 500 g ai/ha, 0 to 100 scale, 0 is no effect, 100 is complete control, read-out: Corn plant response rating
Outline: as §1

[5] = system: giant foxtail (Setaria faberii); experiment: Test A postemergence; conditions: Setaria faberi, post-emergence, 240 h, postemergence; for pest or weed control at 125 g/ha: 125 g ai/ha, visual injury vs untreated controls after approx. 10 d, 0 = no effect, 100 = complete control, read-out: Foxtail, Giant plant response rating (0 to 100 scale); for pest or weed control at 500 g/ha: 500 g ai/ha, 0 to 100 scale, 0 is no effect, 100 is complete control, read-out: Foxtail, Giant plant response rating
Outline: as §1

[6] = system: pigweed (Amaranthus retroflexus); experiment: Test A postemergence; conditions: Amaranthus retroflexus, post-emergence, 240 h, postemergence; for pest or weed control at 125 g/ha: 125 g ai/ha, visual injury vs untreated controls after approx. 10 d, 0 = no effect, 100 = complete control, read-out: Pigweed plant response rating (0 to 100 scale); for pest or weed control at 500 g/ha: 500 g ai/ha, 0 to 100 scale, 0 is no effect, 100 is complete control, read-out: Pigweed plant response rating
Outline: as §1

[7] = system: ragweed (common ragweed, Ambrosia elatior); experiment: Test A postemergence; conditions: Ambrosia artemisiifolia, post-emergence, 240 h, postemergence; for pest or weed control at 125 g/ha: 125 g ai/ha, visual injury vs untreated controls after approx. 10 d, 0 = no effect, 100 = complete control, read-out: Ragweed plant response rating (0 to 100 scale); for pest or weed control at 500 g/ha: 500 g ai/ha, 0 to 100 scale, 0 is no effect, 100 is complete control, read-out: Ragweed plant response rating
Outline: as §1

[8] = system: ryegrass, Italian (Italian ryegrass, Lolium multiflorum); experiment: Test A postemergence; conditions: Lolium multiflorum, post-emergence, 240 h, postemergence; for pest or weed control at 125 g/ha: 125 g ai/ha, visual injury vs untreated controls after approx. 10 d, 0 = no effect, 100 = complete control, read-out: Ryegrass, Italian plant response rating (0 to 100 scale); for pest or weed control at 500 g/ha: 500 g ai/ha, 0 to 100 scale, 0 is no effect, 100 is complete control, read-out: Ryegrass, Italian plant response rating
Outline: as §1

[9] = system: wheat (Triticum aestivum); experiment: Test A postemergence; conditions: Triticum aestivum, post-emergence, 240 h, postemergence; for plant injury at 125 g/ha: 125 g ai/ha, visual injury vs untreated controls after approx. 10 d, 0 = no effect, 100 = complete control, read-out: Wheat plant response rating (0 to 100 scale); for plant injury at 500 g/ha: 500 g ai/ha, 0 to 100 scale, 0 is no effect, 100 is complete control, read-out: Wheat plant response rating
Outline: as §1

[10] = system: barnyardgrass (Echinochloa crus-galli); experiment: Test B flooded paddy test; conditions: Echinochloa crus-galli, 250 g ai/ha, Flood; 0 to 100 scale where 0 is no effect and 100 is complete control; read-out: Barnyardgrass plant response rating
Outline: (§2)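 2-leaf plants; pots flooded 3 cm over soil; cpd added to paddy water; depth held; greenhouse 13–15 d; visual rating vs controls, 0 = no effect, 100 = complete control.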

[11] = system: ducksalad (Heteranthera limosa); experiment: Test B flooded paddy test; conditions: Heteranthera limosa, 250 g ai/ha, Flood; 0 to 100 scale where 0 is no effect and 100 is complete control; read-out: Ducksalad plant response rating
Outline: as §2

rice (Oryra sativa) = experiment: Test B flooded paddy test; conditions: Oryza sativa, 250 g ai/ha, Flood; 0 to 100 scale where 0 is no effect and 100 is complete control; read-out: Rice plant response rating
Outline: as §2

[12] = system: sedge, umbrella (small-flower umbrella sedge, Cyperus difformis); experiment: Test B flooded paddy test; conditions: Cyperus difformis, 250 g ai/ha, Flood; 0 to 100 scale where 0 is no effect and 100 is complete control; read-out: Sedge, Umbrella plant response rating
Outline: as §2

Compound | pest or weed control at 125 g/ha [1] [%] | pest or weed control at 500 g/ha [1] [%] | pest or weed control at 125 g/ha [2] [%] | pest or weed control at 500 g/ha [2] [%] | pest or weed control at 125 g/ha (Kochia (Kochia scoparia)) [%] | pest or weed control at 500 g/ha (Kochia (Kochia scoparia)) [%] | pest or weed control at 125 g/ha [3] [%] | pest or weed control at 500 g/ha [3] [%] | pest or weed control at 125 g/ha [4] [%] | pest or weed control at 500 g/ha [4] [%] | plant injury at 125 g/ha (corn (Zea mays)) [%] | plant injury at 500 g/ha (corn (Zea mays)) [%] | pest or weed control at 125 g/ha [5] [%] | pest or weed control at 500 g/ha [5] [%] | pest or weed control at 125 g/ha [6] [%] | pest or weed control at 500 g/ha [6] [%] | pest or weed control at 125 g/ha [7] [%] | pest or weed control at 500 g/ha [7] [%] | pest or weed control at 125 g/ha [8] [%] | pest or weed control at 500 g/ha [8] [%] | other results
CN1CC[C@H](c2ccc(C(F)(F)F)cc2)[C@@H](C(=O)Nc2ccc(F)c(F)c2F)C1=O [Compound 1226] | 80 | 80 | 80 | 80 | 60 | 60 | 100 | 100 | 20 | 30 | 30 | 70 | 80 | 80 | 20 | 60 | 0 | 50 | 0 | 0 | plant injury at 125 g/ha [9]: 0%; plant injury at 500 g/ha [9]: 0%; pest or weed control at 250 g/ha [10]: 60%; pest or weed control at 250 g/ha [11]: 100%; pest or weed control at 250 g/ha (rice (Oryra sativa)): 20%; pest or weed control at 250 g/ha [12]: 0%
CN1CC[C@H](c2ccc(C(F)(F)F)cc2)[C@@H](C(=O)Nc2cccc(Cl)c2F)C1=O [Compound 1228] | 30 | 60 | 20 | 60 | 60 | 60 | 90 | 90 | 0 | 40 | 20 | 70 | 80 | 80 | 20 | 50 | 0 | 0 | 0 | 30 | plant injury at 125 g/ha [9]: 0%; plant injury at 500 g/ha [9]: 30%; pest or weed control at 250 g/ha [10]: 50%; pest or weed control at 250 g/ha [11]: 100%; pest or weed control at 250 g/ha (rice (Oryra sativa)): 30%; pest or weed control at 250 g/ha [12]: 0%
CN1C[C@H](c2ccc(C#N)cc2)[C@@H](C(=O)Nc2ccc(F)c(F)c2F)C1=O [Compound 1229] | 0 | 40 | 40 | 50 | 70 | 80 | 100 | 100 | 0 | 40 | 0 | 0 | 90 | 90 | 40 | 60 | 0 | 0 | 0 | 40 | plant injury at 125 g/ha [9]: 0%; plant injury at 500 g/ha [9]: 50%; pest or weed control at 250 g/ha [10]: 50%; pest or weed control at 250 g/ha [11]: 90%; pest or weed control at 250 g/ha (rice (Oryra sativa)): 0%; pest or weed control at 250 g/ha [12]: 0%

From patent publication US12077503B2, “Substituted cyclic amides and their use as herbicides” (FMC CORPORATION, priority 2015, dated 2024)
